Measured values published in patent US20130131121A1, “ANTI-VIRAL AGENT” (priority 2007, published 2013).
Converted amounts (≈) assume the structure as drawn.

What was measured:
[1] = tested on: human cytomegalovirus (HCMV); assay: Suppression of HCMV virus production in infected MRC-5 cells (plaque technique); assay type: cell-based; conditions: for EC50: Human betaherpesvirus 5, MRC5, HCMV proliferation in MRC-5 cells, read-out: EC50 (50% effective concentration); for SI (selection index): IC50/EC50
[2] = in vitro; conditions: human
[3] = Cytotoxicity (IC50) of components separated from Kumazasa extract; conditions: human, MRC-5 human fetal lung fibroblast cells
[4] = tested on: influenza type A virus (A/Hiroshima/52/2005, H3N2); assay: Plaque technique in MDCK cells, influenza type A virus; assay type: cell-based; conditions: tricin concentration of 0.3 μg/ml
[5] = tested on: influenza type B virus (B/Malaysia/2506/2004); assay: Plaque technique in MDCK cells, influenza type B virus; assay type: cell-based; conditions: tricin concentration of 0.3 μg/ml

SMILES	EC50 [1]	SI (selection index) [1]	IC50 [2]	IC50 [3]	proliferation of the virus (virus titer) ([1]; tricin concentration of 111 μg/ml, FIG. 4)	proliferation suppression ratio (pt/pc×100%) [4]	proliferation suppression ratio (pt/pc×100%) [5]
O=Cc1ccc(O)cc1 [p-hydroxybenzaldehyde]	12.8 µg/mL (≈ 105 µM)	23.8	305 µg/mL (≈ 2500 µM)	–	–	–	–
O=C(O)/C=C/c1ccc(O)cc1 [p-coumaric acid, reference compound]	8.2 µg/mL (≈ 50 µM)	22.8	–	187 µg/mL (≈ 1140 µM)	–	–	–
COc1cc(-c2cc(=O)c3c(O)cc(O)cc3o2)cc(OC)c1O [Tricin, 5,7,4′-trihydroxy-3′,5′-dimethoxyflavone]	1.7 µg/mL (≈ 5.15 µM)	1205.8	–	2050 µg/mL (≈ 6210 µM)	virtually completely inhibited	52%	48%
Nc1nc(O)c2ncn(COC(CO)CO)c2n1 [Ganciclovir, reference compound]	0.3 to 0.8 µg/mL (≈ 1.18 to 3.13 µM)	–	–	–	–	–	–
COc1cc(C=O)ccc1O [Vanillin, vanillin]	48 µg/mL (≈ 315 µM)	4.5	–	215 µg/mL (≈ 1410 µM)	–	–	–
Oc1cccnc1 [3-hydroxy pyridine, 3-hydroxypyridine]	3.4 µg/mL (≈ 35.8 µM)	77.4	–	263 µg/mL (≈ 2770 µM)	–	–	–
